Among the data in US12240862B2, “Inhibitors of peptidylarginine deiminases” (Gilead Sciences, Inc., priority 2020, dated 2025) are IC50 values, retold here.

This assay deals with T1, human PAD4 (Homo sapiens, UniProt Q9UM07).
T1 construct: human PAD4 (NM_012387), A2P663, was PCR amplified; His-SUMO (N, cleaved yes); made in house; host or cells: E. coli BL21(DE3)
T1 sequence (Q9UM07 2-663): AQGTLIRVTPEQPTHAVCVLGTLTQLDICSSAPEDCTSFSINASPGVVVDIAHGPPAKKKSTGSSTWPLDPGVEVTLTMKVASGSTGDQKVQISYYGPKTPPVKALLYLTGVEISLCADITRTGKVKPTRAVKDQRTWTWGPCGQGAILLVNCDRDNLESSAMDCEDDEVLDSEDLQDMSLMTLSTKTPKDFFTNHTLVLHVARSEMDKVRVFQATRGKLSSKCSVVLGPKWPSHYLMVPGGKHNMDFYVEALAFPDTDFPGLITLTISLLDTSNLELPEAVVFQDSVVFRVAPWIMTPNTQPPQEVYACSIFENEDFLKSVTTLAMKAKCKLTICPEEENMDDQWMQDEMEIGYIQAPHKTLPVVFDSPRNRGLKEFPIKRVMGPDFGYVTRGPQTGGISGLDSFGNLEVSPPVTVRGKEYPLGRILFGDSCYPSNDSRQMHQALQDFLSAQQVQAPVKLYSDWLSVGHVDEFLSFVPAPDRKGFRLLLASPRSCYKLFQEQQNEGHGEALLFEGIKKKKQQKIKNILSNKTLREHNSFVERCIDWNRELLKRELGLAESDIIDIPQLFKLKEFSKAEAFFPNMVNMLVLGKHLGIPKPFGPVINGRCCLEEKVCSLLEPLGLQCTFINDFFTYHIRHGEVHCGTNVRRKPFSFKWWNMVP
Briefly: In vitro PAD4 BAEE biochemical assay. To be noted: human PAD4, BAEE substrate; 5 nM PAD4, 2 mM calcium chloride, 3 mM BAEE; geometric mean of multiple experiments. The method, boiled down:
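Tag-free recombinant hPAD4 (5 nM), 2 mM CaCl2, 3 mM BAEE, 50 mM MOPS pH 7.6, 2 mM DTT; 30 min compound preincubation, 2 h reaction, all 25 °C. EDTA quench; ammonia read via o-phthalaldehyde amine coupling, 1 h.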
On to `COc1cc(C(=O)N2[C@@H]3CC[C@@H](N)[C@H]2CC3)cc2nc(-c3cc4ccc(N(C(F)F)S(C)(=O)=O)nc4n3CC(F)(F)F)c(C)n12` [Example 495, ~{N}-[2-[7-[(1~{R},2~{R}, 5~{R})-2-amino-8-azabicyclo[3.2.1]octane-8-carbonyl]-5-methoxy-3-methylimidazo[1,2-a]pyridin-2-yl]-1-(2,2,2-trifluoroethyl)pyrrolo [2,3-b]pyridin-6-yl]-~{N}-(difluoromethyl) methanesulfonamide], for which the IC50 was determined as 202 nM.

For `COC(=O)N[C@H](C)c1ccc2cc(-c3nc4cc(C(=O)N5CCC[C@@H](N)C5)cc(OC)n4c3C)n(CC3CC3)c2n1` [Example 258], the IC50 worked out at 225 nM.

As to `COc1cc(C(=O)N2CCC[C@@H](N)C2)cc2nc(-c3cc4ccc(C(NC(C)=O)C5CC5)nc4n3CC3CC3)c(C)n12` (stereo partly drawn) [Example 194, N-((2-(7-((R)-3-aminopiperidine-1-carbonyl)-5-methoxy-3-methylimidazo[1,2-a]pyridin-2-yl)-1-(cyclopropylmethyl)-1H-pyrrolo[2,3-b]pyridin-6-yl)(cyclopropyl)methyl)acetamide], the IC50 came to 1090 nM.

Consider `COc1cc(C(=O)N2CCC3CC3(N)C2)cc2nc(-c3cc4ccc(N(C(F)F)S(C)(=O)=O)nc4n3CC3CC3)c(C)n12` (centres unmarked) [Example 365, ~{N}-[2-[7-(1-amino-3-azabicyclo[4.1.0]heptane-3-carbonyl)-5-methoxy-3-methylimidazo [1,2-a]pyridin-2-yl]-1-(cyclopropylmethyl)pyrrolo [2,3-b]pyridin-6-yl]-~{N}-(difluoromethyl) methanesulfonamide], for which the IC50 was 403 nM.

On to `COc1cc(C(=O)N2[C@H]3CC[C@@H]2[C@H](N)C3)cc2nc(-c3cc4ccc([C@@H]5CCNC(=O)C5)nc4n3CC3CC3)c(C)n12` [Example 555, (4~{R})-4-[2-[7-[(1~{R},2~{R},4~{S})-2-amino-7-azabicyclo[2.2.1]heptane-7-carbonyl]-5-methoxy-3-methylimidazo [1,2-a]pyridin-2-yl]-1-(cyclopropylmethyl)pyrrolo [2,3-b]pyridin-6-yl]piperidin-2-one], for which the IC50 turned out to be 69.3 nM.

Consider `COc1cc(C(=O)N2[C@@H]3C[C@@H](N)[C@H]2CC3C)cc2nc(-c3cc4ccc(N(C(F)F)S(C)(=O)=O)nc4n3CC3CC3)c(C)n12` (stereo partly drawn) [Example 352, N-[2-[7-[(1R,2R,4R)-2-amino-5-methyl-7-azabicyclo[2.2.1]heptane-7-carbonyl]-5-methoxy-3-methyl-imidazo[1,2-a]pyridin-2-yl]-1-(cyclopropylmethyl)pyrrolo [2,3-b]pyridin-6-yl]-N-(difluoromethyl) methanesulfonamide], for which the IC50 was determined as 711 nM.

In the case of `COc1cc(C(=O)N2[C@H]3CC[C@@H]2[C@H](N)C3)cc2nc(-c3cc4ccc([C@@H](C)NC(=O)C56CC(c7ccccc7)(C5)C6)nc4n3CC3CC3)c(C)n12` [Example 147, ~{N}-[(1~{R})-1-[2-[7-[(1~{R},2~{R},4~{S})-2-amino-7-azabicyclo[2.2.1]heptane-7-carbonyl]-5-methoxy-3-methylimidazo [1,2-a]pyridin-2-yl]-1-(cyclopropylmethyl)pyrrolo [2,3-b]pyridin-6-yl]ethyl]-3-phenylbicyclo[1.1.1]pentane-1-carboxamide], the IC50 came to 403 nM.

Take `COc1cc(C(=O)N2[C@H]3CC[C@@H]2[C@H](N)C3)cc2nc(-c3cc4ccc([C@@H](C)NC(=O)C5(C)COC5)nc4n3CC3CC3)c(C)n12` [Example 166, ~{N}-[(1~{R})-1-[2-[7-[(1~{R},2~{R},4~{S})-2-amino-7-azabicyclo[2.2.1]heptane-7-carbonyl]-5-methoxy-3-methylimidazo [1,2-a]pyridin-2-yl]-1-(cyclopropylmethyl)pyrrolo [2,3-b]pyridin-6-yl]ethyl]-3-methyloxetane-3-carboxamide]: the IC50 turned out to be 56 nM.

As to `COc1cc(C(=O)N2CC[C@H]3CCN[C@H]3C2)cc2nc(-c3cc4ccc(N(C(F)F)S(C)(=O)=O)nc4n3CC3CC3)c(C)n12` [Example 325], the IC50 is 154 nM.

In the case of `[2H]C([2H])([2H])OC(=O)N[C@H](C)c1ccc2cc(-c3nc4cc(C(=O)N5[C@H]6CC[C@@H]5[C@H](N)C6)cc(OC)n4c3C)n(CC3CC3)c2n1` [Example 164, trideuteriomethyl~{N}-[(1~{R})-1-[2-[7-[(1~{R},2~{R},4~{S})-2-amino-7-azabicyclo[2.2.1]heptane-7-carbonyl]-5-methoxy-3-methylimidazo[1,2-a]pyridin-2-yl]-1-(cyclopropylmethyl)pyrrolo [2,3-b]pyridin-6-yl]ethyl] carbamate], the IC50 stood at 79 nM.

With `COc1cc(C(=O)N2[C@H]3CC[C@@H]2[C@H](N)C3)cc2nc(-c3cc4ccc([C@@H](C)NC(=O)NC5(C)CC(F)(F)C5)nc4n3CC3CC3)c(C)n12` [Example 212, 1-[(1~{R})-1-[2-[7-[(1~{R},2~{R},4~{S})-2-amino-7-azabicyclo[2.2.1]heptane-7-carbonyl]-5-methoxy-3-methylimidazo [1,2-a]pyridin-2-yl]-1-(cyclopropylmethyl)pyrrolo [2,3-b]pyridin-6-yl]ethyl]-3-(3,3-difluoro-1-methylcyclobutyl)urea], the IC50 amounted to 64.5 nM.

Consider `CCc1ccc2cc(-c3nc4cc(C(=O)N5[C@H]6CC[C@@H]5[C@H](N)C6)cc(OC)n4c3C)n(CCS(C)(=O)=O)c2n1` [Example 498, [(1~{R},2~{R},4~{S})-2-amino-7-azabicyclo [2.2.1]heptan-7-yl]-[2-[6-ethyl-1-(2-methylsulfonylethyl)pyrrolo[2,3-b]pyridin-2-yl]-5-methoxy-3-methylimidazo[1,2-a]pyridin-7-yl]methanone], for which the IC50 is 673 nM.

On to `COc1cc(C(=O)N2[C@H]3CC[C@@H]2[C@H](N)C3)cc2nc(-c3cc4ccc(C5CCCCN5C(C)=O)nc4n3CC3CC3)c(C)n12` (some centres unmarked) [Example 515, 1-[2-[2-[7-[(1~{R},2~{R}, 4~{S})-2-amino-7-azabicyclo[2.2.1]heptane-7-carbonyl]-5-methoxy-3-methylimidazo[1,2-a]pyridin-2-yl]-1-(cyclopropylmethyl)pyrrolo[2,3-b]pyridin-6-yl]piperidin-1-yl] ethenone], for which the IC50 came to 125 nM.

On to `CCc1ccc2cc(-c3nc4cc(C(=O)N5CCC6CCNC6C5)cc(OC)n4c3C)n(CC3CC3)c2n1` (centres unmarked) [Example 583, 1,2,3,3~{a},4,5,7,7~{a}-octahydropyrrolo[2,3-c] pyridin-6-yl-[2-[1-(cyclopropylmethyl)-6-ethylpyrrolo[2,3-b]pyridin-2-yl]-5-methoxy-3-methylimidazo[1,2-a]pyridin-7-yl]methanone], for which the IC50 turned out to be 535 nM.

For the compound `COc1cc(C(=O)N2CCC[C@@H](N)C2)cc2nc(-c3cc4ccc([C@@H](C)NC(=O)C(C)(C)O)nc4n3CC3CC3)c(C)n12` [Example 127, ~{N}-[(1~{R})-1-[2-[7-[(3~{R})-3-aminopiperidine-1-carbonyl]-5-methoxy-3-methylimidazo [1,2-a]pyridin-2-yl]-1-(cyclopropylmethyl)pyrrolo [2,3-b]pyridin-6-yl]ethyl]-2-hydroxy-2-methylpropanamide], the IC50 stood at 76.2 nM.

On to `COc1cc(C(=O)N2[C@H]3CC[C@@H]2[C@H](N)C3)cc2nc(-c3cc4ccc(C5CCNC(=O)C5)nc4n3CC3CC3)c(C)n12` (some centres unmarked) [Example 562, 4-[2-[7-[(1~{R},2~{R}, 4~{S})-2-amino-7-azabicyclo[2.2.1]heptane-7-carbonyl]-5-methoxy-3-methylimidazo[1,2-a]pyridin-2-yl]-1-(cyclopropylmethyl)pyrrolo[2,3-b]pyridin-6-yl]piperidin-2-one], for which the IC50 came to 83.1 nM.

Regarding `COc1cc(C(=O)N2[C@H]3CC[C@@H]2[C@H](N)C3)cc2nc(-c3cc4ccc([C@@H](C)NC(=O)[C@@H]5CC5(F)F)nc4n3CC3CC3)c(C)n12` [Example 130, (1~{S})-~{N}-[(1~{R})-1-[2-[7-[(1~{R},2~{R},4~{S})-2-amino-7-azabicyclo [2.2.1]heptane-7-carbonyl]-5-methoxy-3-methylimidazo [1,2-a]pyridin-2-yl]-1-(cyclopropylmethyl)pyrrolo [2,3-b]pyridin-6-yl]ethyl]-2,2-difluorocyclopropane-1-carboxamide], the IC50 came to 47.2 nM.

`COc1cc(C(=O)N2[C@H]3CC[C@@H]2[C@H](N)C3)cc2nc(-c3cc4ccc([C@@H](C)NC(=O)N5CC6CC(C5)O6)nc4n3CC3CC3)c(C)n12` [Example 211, ~{N}-[(1~{R})-1-[2-[7-[(1~{R},2~{R},4~{S})-2-amino-7-azabicyclo[2.2.1]heptane-7-carbonyl]-5-methoxy-3-methylimidazo [1,2-a]pyridin-2-yl]-1-(cyclopropylmethyl)pyrrolo [2,3-b]pyridin-6-yl]ethyl]-6-oxa-3-azabicyclo [3.1.1]heptane-3-carboxamide]: the IC50 was 31.6 nM.

`COc1cc(C(=O)N2C[C@@H]3CNCC[C@@H]32)cc2nc(-c3cc4ccc(N(C(F)F)S(C)(=O)=O)nc4n3CC3CC3)c(C)n12` [Example 283, ~{N}-[1-(cyclopropylmethyl)-2-[7-[(1~{S},6~{S})-3,7-diazabicyclo[4.2.0]octane-7-carbonyl]-5-methoxy-3-methylimidazo[1,2-a]pyridin-2-yl]pyrrolo[2,3-b]pyridin-6-yl]-~{N}-(difluoromethyl) methanesulfonamide]: the IC50 was 11700 nM.

Take `COc1cc(C(=O)N2[C@H]3CC[C@@H]2[C@H](N)C3)cc2nc(-c3cc4ccc([C@@H](C)NC(=O)C56CCC(F)(CC5)CC6)nc4n3CC3CC3)c(C)n12` [Example 63, ~{N}-[(1~{R})-1-[2-[7-[(1~{R},2~{R}, 4~{S})-2-amino-7-azabicyclo[2.2.1]heptane-7-carbonyl]-5-methoxy-3-methylimidazo [1,2-a]pyridin-2-yl]-1-(cyclopropylmethyl)pyrrolo[2,3-b]pyridin-6-yl]ethyl]-4-fluorobicyclo[2.2.2] octane-1-carboxamide]: the IC50 amounted to 84.9 nM.

For orientation: IC50 means the point on the concentration scale where inhibition reaches its midpoint.
